In ChEMBL document CHEMBL4052769, “Synthesis and biological evaluation of novel 1,2,3-triazole derivatives as anti-tubercular agents” (Bioorg Med Chem Lett, 2017):
In brackets after ≈: the same amount, converted by molar mass.

Key:
[1] = tested on: Mycobacterium tuberculosis; assay: Antitubercular activity against Mycobacterium tuberculosis H37Ra ATCC 25177 after 4 weeks by Agar-based proportion Assay; type: functional; conditions: H37Ra ATCC 25177, 672 h
[2] = Cytotoxicity against Swiss mouse BMDM assessed as reduction in cell viability after 24 hrs by MTS assay; type: cell-based; conditions: bone marrow-derived macrophages (BMDM)
[3] = Selectivity index, ratio of CC50 for Swiss mouse BMDM to MIC for Mycobacterium tuberculosis H37Ra ATCC 25177

Compound: Brc1ccc(-n2cc(COc3ccc(-c4ccccc4)cc3)nn2)cc1
- MIC [1]: > 25 µg/mL

Compound: Fc1ccc(-n2cc(COc3ccc(-c4ccccc4)cc3)nn2)cc1Cl
- MIC [1]: 1.56 µg/mL (≈ 4.11 µM)
- CC50 at 24 h [2]: 100 µg/mL (≈ 263 µM)
- Selectivity Index [3]: 64.1

Compound: Fc1ccc(-n2cc(COc3ccc(-c4ccccc4)cc3)nn2)cc1
- MIC [1]: > 25 µg/mL

Compound: c1ccc(-c2ccc(OCc3cn(-c4ccccc4)nn3)cc2)cc1
- MIC [1]: > 25 µg/mL

Compound: CC[C@@H](CO)NCCN[C@@H](CC)CO [ETHAMBUTOL]
- MIC [1]: 2 µg/mL (≈ 9.79 µM)
- CC50 at 24 h [2]: 100 µg/mL (≈ 489 µM)
- Selectivity Index [3]: 50

Compound: Clc1ccc(-n2cc(COc3ccc(-c4ccccc4)cc3)nn2)cc1
- MIC [1]: > 25 µg/mL

Compound: Fc1ccc(-n2cc(COc3ccc(-c4ccccc4)cc3)nn2)cc1F
- MIC [1]: 3.12 µg/mL (≈ 8.59 µM)
- CC50 at 24 h [2]: 100 µg/mL (≈ 275 µM)
- Selectivity Index [3]: 32

Compound: O=[N+]([O-])c1ccc(Cn2cc(COc3ccc(-c4ccccc4)cc3)nn2)cc1
- MIC [1]: > 25 µg/mL

Compound: Fc1ccccc1-n1cc(COc2ccc(-c3ccccc3)cc2)nn1
- MIC [1]: 0.78 µg/mL (≈ 2.26 µM)
- CC50 at 24 h [2]: 100 µg/mL (≈ 290 µM)
- Selectivity Index [3]: 128

Compound: c1ccc(Cn2cc(COc3ccc(-c4ccccc4)cc3)nn2)cc1
- MIC [1]: > 25 µg/mL

Compound: O=[N+]([O-])c1ccc(-n2cc(COc3ccc(-c4ccccc4)cc3)nn2)cc1
- MIC [1]: > 25 µg/mL

Compound: CC(=O)OCCn1cc(COc2ccc(-c3ccccc3)cc2)nn1
- MIC [1]: 1.56 µg/mL (≈ 4.62 µM)
- CC50 at 24 h [2]: 100 µg/mL (≈ 296 µM)
- Selectivity Index [3]: 64.1

Compound: FC(F)(F)c1ccc(-n2cc(COc3ccc(-c4ccccc4)cc3)nn2)cc1
- MIC [1]: 3.12 µg/mL (≈ 7.89 µM)
- CC50 at 24 h [2]: 100 µg/mL (≈ 253 µM)
- Selectivity Index [3]: 32

Compound: NNC(=O)c1ccncc1 [ISONIAZID]
- MIC [1]: 0.025 µg/mL (≈ 0.182 µM)
- CC50 at 24 h [2]: 100 µg/mL (≈ 729 µM)
- Selectivity Index [3]: 4000

Compound: c1ccc(CCn2cc(COc3ccc(-c4ccccc4)cc3)nn2)cc1
- MIC [1]: > 25 µg/mL

Compound: N#Cc1ccc(-n2cc(COc3ccc(-c4ccccc4)cc3)nn2)cc1
- MIC [1]: > 25 µg/mL

Compound: FC(F)Oc1ccc(-n2cc(COc3ccc(-c4ccccc4)cc3)nn2)cc1
- MIC [1]: 1.56 µg/mL (≈ 3.97 µM)
- CC50 at 24 h [2]: 100 µg/mL (≈ 254 µM)

Compound: CCCCCCCCn1cc(COc2ccc(-c3ccccc3)cc2)nn1
- MIC [1]: > 25 µg/mL

Compound: COc1ccc(-n2cc(COc3ccc(-c4ccccc4)cc3)nn2)cc1
- MIC [1]: > 25 µg/mL
